# Test results from patent publication US20250295717A1, “RE[…] OF R[…] VIRUS, COMBINATION, AND APPLICATION THEREOF” (NEUREGEN BIOTHERAPEUTICS (SHANGHAI) CO. LTD, priority 2022, published 2025).
# Experiments:
# [1] = system: human glioma U87 cells subcutaneous implantation; test: Subcutaneous U87 glioma model, combination with temozolomide (Example 5); assay type: in vivo, mouse
# Experimental: (§1) For the subcutaneous glioma model, human U87 glioma cells were cultured, and during the logarithmic growth phase, they were inoculated into the axillae of nude mice. After two passages, the tumor tissue was collected under sterile conditions, and the tumor mass was cut into uniform small pieces approximately the size of grains of rice, which were then inoculated subcutaneously in the axillae of nude mice using an implantation needle. Once the tumor grew to approximately 100 mm^3, the mice were randomly grouped, and the treatment began. All samples were dissolved in PBS, with an injection volume of 50 μL/tumor. The length and width of the tumor were measured every three days, and the tumor volume was calculated using the formula: […]
# In this example, a subcutaneous implantation model using human glioma U87 cells in BALB/c nu/nu mice was adopted. U87 human glioblastoma cells were inoculated into the armpits of the nude mice during the logarithmic growth phase. When the tumor grew to approximately 100 mm^3, appropriate tumor-bearing mice were randomly grouped. After grouping, treatment commenced, with the PBS group serving as the control. The Ad5-AN group received a dose of 1×10^9 PFU, while the temozolomide (TMZ) gavage group received 15 mg/kg once daily for five days, followed by two days off. Additionally, there was a combination treatment group of Ad5-AN and temozolomide (Ad5-AN+TMZ), with Ad5-AN administered every two days for a total of five doses. Tumor volume was measured every three days, and later, the animals were euthanized to weigh the tumors and perform biochemical and molecular analyses.
# [2] = system: glioma cells (U87-luc) implanted into the brain; test: Brain orthotopic glioma model U87-luc (Example 6); assay type: in vivo, mouse; settings: Ad5-AN 1×10^9 PFU every four days, three doses, TMZ 15 mg/kg, PBS group 22.3 days
# Experimental: For the orthotopic glioma model, 7-week-old NOD-scid mice were used. Human glioma cells, either induced with […] or not induced, were centrifuged to remove the supernatant, resulting in a cell density of approximately 2.5×10^5 cells/μL. A total of 2 μL (5×10^5 cells) was implanted into the striatum of each mouse. After three weeks, histological analysis or viral injection was performed, followed by immunohistochemical detection.
# In this example, glioma cells (U87-luc) were first implanted into the brain (5×10^5 cells). After 7 days of implantation, the mice were grouped for treatment, with the PBS group serving as the control. The Ad5-AN group received a dose of 1×10^9 PFU, while the temozolomide (TMZ) gavage group received 15 mg/kg once daily for five days, followed by two days off. Additionally, there was a combination treatment group of Ad5-AN and temozolomide, with Ad5-AN administered every four days for a total of three doses.
# human glioma tissue PDX = test: Patient-derived tumor xenograft (PDX) model from human glioma tissue (Example 7); assay type: in vivo, mouse
# Experimental: To further validate the combined effect of oncolytic viruses and redifferentiation therapy, this implementation was tested in a patient-derived tumor xenograft (PDX) model constructed from human glioma tissue. PDX tissues were inoculated into the armpits of nude mice for passaging, and when they reached the logarithmic growth phase, they were re-inoculated into the armpits of nude mice. When the tumor grew to approximately 100 mm^3, appropriate tumor-bearing mice were randomly grouped. After grouping, treatment commenced, with the PBS group serving as the control. The Ad5-AN group received a dose of 1×10^9 PFU, while the temozolomide (TMZ) gavage group received 15 mg/kg once daily for five days, followed by two days off. Additionally, there was a combination treatment group of Ad5-AN and temozolomide, with Ad5-AN administered every two days for a total of five doses. Tumor volume was measured every three days, and later, the animals were euthanized to weigh the tumors and perform biochemical and molecular analyses.
# [3] = system: human glioblastoma U87 ectopic implantation; test: Human glioblastoma U87 BALB/CA-nu mouse ectopic implantation model, recombinant HSV (Example 8); assay type: in vivo
# Experimental: as §1
# In this implementation, type 1 herpes simplex virus (HSV) was used as an oncolytic virus vector, with fragments from human Ascl1 (SEQ ID No. 11) and the coding sequence (CDS) of human Ngn2 (SEQ ID No. 15) inserted to achieve efficient co-expression of Ascl1 and Ngn2. After packaging and purifying the recombinant HSV, tests were conducted using a human glioblastoma U87 BALB/CA-nu mouse ectopic implantation model. […] Tumor volume was measured every three days, and later, the animals were euthanized to weigh the tumors and perform biochemical and molecular analyses. […]
# [4] = U87 subcutaneous, extended experiment
smiles,measurement,setting,value
Cn1nnc2c(C(N)=O)ncn2c1=O [temozolomide],time at which tumor growth approached 2000 mm^3,[1]; [4],around 60 days
same,time at which tumors gradually relapsed post-treatment,[1]; [4],around 35 days
same,tumor recurrence after 56 days,"[1]; mice with recurrence / seven mice, FIG. 5",7/7
same,average survival,[2],56.8 days
same,time at which tumors gradually relapsed post-treatment,human glioma tissue PDX,around 45 days
same,time at which tumors reached nearly 2000 mm^3,human glioma tissue PDX,around 72 days
same,tumors relapsed and began to regrow,human glioma tissue PDX; around 45 days post-treatment,6/6
same,tumor volume decrease,"[3]; after 10 days of treatment, HSV 2×10^6 PFU every two days, five doses, TMZ 15 mg/kg",73.6%
same,tumor recurrence,[3]; after two months,6/6
